Patent US12187728B2 (Raze Therapeutics, Inc., priority 2015, dated 2025)

Target: T1, Human MTHFD2 (Homo sapiens, UniProt P13995)
T1 construct: residues 36-350 in Uniport ID P13995; His6 (N); made in house; host or cells: E. coli
T1 sequence (P13995 36-350): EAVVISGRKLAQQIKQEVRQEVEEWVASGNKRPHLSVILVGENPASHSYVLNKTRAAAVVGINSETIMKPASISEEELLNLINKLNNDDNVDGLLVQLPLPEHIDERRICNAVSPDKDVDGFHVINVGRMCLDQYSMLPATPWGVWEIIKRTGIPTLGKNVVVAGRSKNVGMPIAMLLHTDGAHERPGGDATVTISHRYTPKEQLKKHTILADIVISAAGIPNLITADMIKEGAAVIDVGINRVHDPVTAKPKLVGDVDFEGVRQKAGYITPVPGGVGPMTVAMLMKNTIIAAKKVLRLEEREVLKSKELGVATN
Experiment: MTHFD2 Activity Assay (dehydrogenase activity, diaphorase/resazurin coupled fluorescence)
Type: biochemical
Settings: inhibitory activity (IC50 and/or binding constant); 0.2 nM MTHFD2, 11 concentrations
Description: Human MTHFD2 (residues 36-350 in Uniport ID P13995) was expressed as an N-terminal His6 tagged protein and purified in E. coli using nickel capture followed by size-exclusion chromatography.
MTHFD2 dehydrogenase activity oxidizes methylene tetrahyrofolate to methenyl-tetrahydrofolate with the concomitant reduction of NAD to NADH. MTHFD2 dehydrogenase activity was followed by coupling the generation of NADH to diaphorase catalyzed […] of resazurin to fluorescent resorufin. Briefly, control (DMSO) or compound was incubated with 0.2 nM MTHFD2 for 15 minutes in 10.5 μl assay buffer containing 100 mM Hepes, pH 8.0, 5 mM MgCl2, 5 mM KH2PO4, 0.05% BSA, 0.01% Tween-20 in a 384 well Griener, low volume, black plate. 10 μl of substrate buffer containing 70 μM CH2-THF, 1 mM NAD^+, 100 μM Resazurin and 0.42 mg/ml diaphorase was then added to initiate the reaction and the reaction plate was incubated for 30 minutes. 5 μl of 250 mM EDTA was then added to each well to stop the reaction and MTHFD2 activity was quantified by measuring resorufin fluorescence emission at 598 nm following excitation at 525 nm. Activity in positive control wells containing the complete reaction mixture and DMSO alone was set to 100% while activity in negative control wells with the complete reaction mix without MTHFD2 was set to 0%. 11 concentrations of each compound were tested and the fluorescent data at each concentration was normalized to the positive and negative controls and represented as % inhibition. Median inhibitory concentration (IC50) was calculated by fitting % inhibition at each concentration to a 4 parameter logistic fit equation using Graphpad Prizm.
The compound numbers correspond to the compound numbers in Table A (i.e., the example numbers).

| SMILES | IC50 |
| --- | --- |
| Cn1c(Nc2cccc([C@@H]3C[C@H]3C(N)=O)n2)nc2c1c(=O)n(Cc1cc3c(Cl)cccc3[nH]1)c(=O)n2C (racemic) [Example 364, (±)-trans-2-(6-((1-((4-chloro-1H-indol-2-yl)methyl)-3,7-dimethyl-2,6-dioxo-2,3,6,7-tetrahydro-1H-purin-8-yl)amino)pyridin-2-yl)cyclopropanecarboxamide] | 10 to 1000 nM |
| Cn1c(Nc2ccnc([C@H]3C[C@H]3C(=O)O)c2)nc2c1c(=O)n(Cc1cc3c(Cl)cccc3[nH]1)c(=O)n2C (racemic) [Example 368, (±)-cis-2-(4-((1-((4-chloro-1H-indol-2-yl)methyl)-3,7-dimethyl-2,6-dioxo-2,3,6,7-tetrahydro-1H-purin-8-yl)amino)pyridin-2-yl)cyclopropanecarboxylic acid] | 10 to 1000 nM |
| Cn1c(Nc2cccc([C@H]3C[C@H]3C(=O)O)n2)nc2c1c(=O)n(Cc1cc3c(Cl)cccc3[nH]1)c(=O)n2C (racemic) [Example 372, (±)-cis-2-(6-((1-((4-chloro-1H-indol-2-yl)methyl)-3,7-dimethyl-2,6-dioxo-2,3,6,7-tetrahydro-1H-purin-8-yl)amino)pyridin-2-yl)cyclopropane-1-carboxylic acid] | 10 to 1000 nM |
| Cn1c(N[C@H]2CC[C@@H](O)C2)nc2c1c(=O)n(Cc1ccc(Cl)c(Cl)c1)c(=O)n2C (single isomer, unassigned) [Example 43, 1-(3,4-dichlorobenzyl)-8-((1S,3R)-3-hydroxycyclopentylamino)-3,7-dimethyl-1H-purine-2,6(3H,7H)-dione or 1-(3,4-dichlorobenzyl)-8-((1R,3S)-3-hydroxycyclopentylamino)-3,7-dimethyl-1H-purine-2,6(3H,7H)-dione] | 10 to 1000 nM |
| Cn1c(N[C@H]2CC[C@H](O)C2)nc2c1c(=O)n(Cc1ccc(Cl)c(Cl)c1)c(=O)n2C (single isomer, unassigned) [Example 70, 1-(3,4-dichlorobenzyl)-8-((1S,3S)-3-hydroxycyclopentylamino)-3,7-dimethyl-1H-purine-2,6(3H,7H)-dione or 1-(3,4-dichlorobenzyl)-8-((1R,3R)-3-hydroxycyclopentylamino)-3,7-dimethyl-1H-purine-2,6(3H,7H)-dione] | 10 to 1000 nM |
| Cn1c(N[C@H]2CC[C@@H](O)C2)nc2c1c(=O)n(Cc1ccc(Cl)c(Cl)c1)c(=O)n2C (single isomer, unassigned) [Example 71, 1-(3,4-dichlorobenzyl)-8-((1S,3R)-3-hydroxycyclopentylamino)-3,7-dimethyl-1H-purine-2,6(3H,7H)-dione or 1-(3,4-dichlorobenzyl)-8-((1R,3S)-3-hydroxycyclopentylamino)-3,7-dimethyl-1H-purine-2,6(3H,7H)-dione] | 10 to 1000 nM |
| Cn1c(N[C@@H]2CC[C@@H](O)C2)nc2c1c(=O)n(Cc1ccc(C(F)(F)F)cc1)c(=O)n2C (single isomer, unassigned) [Example 76, 8-((1R,3R)-3-hydroxycyclopentylamino)-3,7-dimethyl-1-(4-(trifluoromethyl)benzyl)-1H-purine-2,6(3H,7H)-dione or 8-((1S,3S)-3-hydroxycyclopentylamino)-3,7-dimethyl-1-(4-(trifluoromethyl)benzyl)-1H-purine-2,6(3H,7H)-dione] | 1000 to 5000 nM |
| Cn1c(N[C@H]2CCC[C@@H](O)C2)nc2c1c(=O)n(Cc1ccc(Cl)c(Cl)c1)c(=O)n2C (single isomer, unassigned) [Example 78, 1-(3,4-dichlorobenzyl)-8-((1S,3R)-3-hydroxycyclohexylamino)-3,7-dimethyl-1H-purine-2,6(3H,7H)-dione or 1-(3,4-dichlorobenzyl)-8-((1R,3S)-3-hydroxycyclohexylamino)-3,7-dimethyl-1H-purine-2,6(3H,7H)-dione] | 10 to 1000 nM |
| Cn1c(N[C@H]2CCC[C@@H](O)C2)nc2c1c(=O)n(Cc1ccc(Cl)c(Cl)c1)c(=O)n2C (single isomer, unassigned) [Example 79, 1-(3,4-dichlorobenzyl)-8-((1S,3R)-3-hydroxycyclohexylamino)-3,7-dimethyl-1H-purine-2,6(3H,7H)-dione or 1-(3,4-dichlorobenzyl)-8-((1R,3S)-3-hydroxycyclohexylamino)-3,7-dimethyl-1H-purine-2,6(3H,7H)-dione] | 10 to 1000 nM |
| Cn1c(N[C@H]2CCC[C@H](O)C2)nc2c1c(=O)n(Cc1ccc(Cl)c(Cl)c1)c(=O)n2C (single isomer, unassigned) [Example 80, 1-(3,4-dichlorobenzyl)-8-((1S,3S)-3-hydroxycyclohexylamino)-3,7-dimethyl-1H-purine-2,6(3H,7H)-dione or 1-(3,4-dichlorobenzyl)-8-((1R,3R)-3-hydroxycyclohexylamino)-3,7-dimethyl-1H-purine-2,6(3H,7H)-dione] | 10 to 1000 nM |
| Cn1c(N[C@H]2CCC[C@H](O)C2)nc2c1c(=O)n(Cc1ccc(Cl)c(Cl)c1)c(=O)n2C (single isomer, unassigned) [Example 81, 1-(3,4-dichlorobenzyl)-8-((1S,3S)-3-hydroxycyclohexylamino)-3,7-dimethyl-1H-purine-2,6(3H,7H)-dione or 1-(3,4-dichlorobenzyl)-8-((1R,3R)-3-hydroxycyclohexylamino)-3,7-dimethyl-1H-purine-2,6(3H,7H)-dione] | 10 to 1000 nM |
| Cn1c(N[C@H]2CCC(=O)NC2)nc2c1c(=O)n(Cc1ccc(Cl)c(Cl)c1)c(=O)n2C (single isomer, unassigned) [Example 82, (S)-1-(3,4-dichlorobenzyl)-3,7-dimethyl-8-(6-oxopiperidin-3-ylamino)-1H-purine-2,6(3H,7H)-dione or (R)-1-(3,4-dichlorobenzyl)-3,7-dimethyl-8-(6-oxopiperidin-3-ylamino)-1H-purine-2,6(3H,7H)-dione] | 10 to 1000 nM |
| Cn1c(N[C@H]2CCC(=O)NC2)nc2c1c(=O)n(Cc1ccc(Cl)c(Cl)c1)c(=O)n2C (single isomer, unassigned) [Example 83, (5)-1-(3,4-dichlorobenzyl)-3,7-dimethyl-8-(6-oxopiperidin-3-ylamino)-1H-purine-2,6(3H,7H)-dione or (R)-1-(3,4-dichlorobenzyl)-3,7-dimethyl-8-(6-oxopiperidin-3-ylamino)-1H-purine-2,6(3H,7H)-dione] | 10 to 1000 nM |
| Cn1c(N[C@H]2CC[C@@H](O)C2)nc2c1c(=O)n(Cc1ccc(C(F)(F)F)cc1)c(=O)n2C (single isomer, unassigned) [Example 133, 8-((1S,3R)-3-hydroxycyclopentylamino)-3,7-dimethyl-1-(4-(trifluoromethyl)benzyl)-1H-purine-2,6(3H,7H)-dione or 8-((1R,3S)-3-hydroxycyclopentylamino)-3,7-dimethyl-1-(4-(trifluoromethyl)benzyl)-1H-purine-2,6(3H,7H)-dione] | 1000 to 5000 nM |
| Cn1c(N[C@@H]2CC[C@@H](O)C2)nc2c1c(=O)n(Cc1ccc(C(F)(F)F)cc1)c(=O)n2C (single isomer, unassigned) [Example 144, 8-((1R,3R)-3-hydroxycyclopentylamino)-3,7-dimethyl-1-(4-(trifluoromethyl)benzyl)-1H-purine-2,6(3H,7H)-dione or 8-((1S,3S)-3-hydroxycyclopentylamino)-3,7-dimethyl-1-(4-(trifluoromethyl)benzyl)-1H-purine-2,6(3H,7H)-dione] | 1000 to 5000 nM |
| Cn1c(N[C@H]2CC[C@@H](O)C2)nc2c1c(=O)n(Cc1ccc(C(F)(F)F)cc1)c(=O)n2C (single isomer, unassigned) [Example 156, 8-((1S,3R)-3-hydroxycyclopentylamino)-3,7-dimethyl-1-(4-(trifluoromethyl)benzyl)-1H-purine-2,6(3H,7H)-dione or 8-((1R,3S)-3-hydroxycyclopentylamino)-3,7-dimethyl-1-(4-(trifluoromethyl)benzyl)-1H-purine-2,6(3H,7H)-dione] | 1000 to 5000 nM |
| Cn1c(N[C@@H]2CCC[C@H](C(=O)O)C2)nc2c1c(=O)n(Cc1ccc(Cl)c(Cl)c1)c(=O)n2C (single isomer, unassigned) [Example 184, (1S,3R)-3-(1-(3,4-dichlorobenzyl)-3,7-dimethyl-2,6-dioxo-2,3,6,7-tetrahydro-1H-purin-8-ylamino)cyclohexanecarboxylic acid or (1R,3S)-3-(1-(3,4-dichlorobenzyl)-3,7-dimethyl-2,6-dioxo-2,3,6,7-tetrahydro-1H-purin-8-ylamino)cyclohexanecarboxylic acid] | 10 to 1000 nM |
